{"source": "patent US5480885A", "about": "“Ergoline derivatives of 1-propinylamine, a process for the manufacture thereof and the use thereof for medicaments” (priority 1991, dated 1996)", "key": {"pupil": {"tested_on": "pupil", "assay": "dilatation of the pupil in mice (Pulewka)", "type": "in vivo", "conditions": "in words"}, "[1]": {"assay": "acute toxicity in mice (Miller and Tainter)", "conditions": "mouse, in vivo, intravenous", "text": "Exptl. Biol. Med. 57, 261 (1944)."}, "isolated rat uterus": {"tested_on": "isolated rat uterus", "assay": "uterotonic activity (isolated rat uterus)", "conditions": "in words"}, "[2]": {"tested_on": "pentobarbital-anesthetized normotensive rats", "assay": "blood pressure and heart rate in pentobarbital-anesthetized normotensive rats", "type": "in vivo, rat", "conditions": "450 μg/kg i.v."}, "[3]": {"target": "T1, isolated rabbit thoracic aorta (serotonin) (Oryctolagus cuniculus, UniProt G1SYA7)", "T1 construct": "isolated rabbit thoracic aorta; from tissue; host or cells: isolated rabbit thoracic aorta", "T1 sequence (G1SYA7 entry or part of it)": "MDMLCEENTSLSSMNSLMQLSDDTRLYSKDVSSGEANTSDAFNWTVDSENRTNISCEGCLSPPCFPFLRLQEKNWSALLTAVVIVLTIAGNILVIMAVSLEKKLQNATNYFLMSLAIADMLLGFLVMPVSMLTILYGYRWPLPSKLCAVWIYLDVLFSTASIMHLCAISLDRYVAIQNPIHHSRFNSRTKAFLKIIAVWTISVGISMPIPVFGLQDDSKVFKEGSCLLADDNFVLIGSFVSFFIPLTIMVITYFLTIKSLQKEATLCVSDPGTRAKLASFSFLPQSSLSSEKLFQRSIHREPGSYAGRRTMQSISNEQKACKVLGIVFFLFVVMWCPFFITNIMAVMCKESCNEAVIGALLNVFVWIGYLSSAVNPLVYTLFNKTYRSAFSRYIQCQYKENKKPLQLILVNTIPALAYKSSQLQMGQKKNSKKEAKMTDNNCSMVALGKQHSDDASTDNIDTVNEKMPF"}, "[4]": {"tested_on": "isolated rabbit thoracic aorta", "assay": "constriction of the isolated rabbit thoracic aorta"}, "5-HT2 receptors": {"target": "T2, 5-HT2 receptors (Mus musculus, UniProt P35363)", "T2 construct": "The head twitch model in mice; from tissue; host or cells: living mice (central nervous system)", "T2 sequence (P35363 whole entry)": "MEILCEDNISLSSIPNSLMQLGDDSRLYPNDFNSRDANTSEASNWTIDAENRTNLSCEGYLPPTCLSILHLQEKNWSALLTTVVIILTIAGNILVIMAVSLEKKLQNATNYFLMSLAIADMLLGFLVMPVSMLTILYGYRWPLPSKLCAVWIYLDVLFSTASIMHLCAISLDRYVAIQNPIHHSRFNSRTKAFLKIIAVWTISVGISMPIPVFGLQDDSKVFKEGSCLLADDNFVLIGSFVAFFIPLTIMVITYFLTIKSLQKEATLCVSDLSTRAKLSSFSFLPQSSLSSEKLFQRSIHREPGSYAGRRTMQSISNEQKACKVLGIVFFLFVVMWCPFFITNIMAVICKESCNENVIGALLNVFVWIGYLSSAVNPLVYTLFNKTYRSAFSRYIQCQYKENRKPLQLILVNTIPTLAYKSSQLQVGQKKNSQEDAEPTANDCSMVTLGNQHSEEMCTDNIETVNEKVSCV", "assay": "head twitch response caused by the compound in mice", "type": "in vivo", "text": "The head twitch model in mice represents an experimental model for determining the hallucinogenic action of a compound (the method was described by Handley and Singh, Br.J.Pharmacol., 86, 297-303, 1985). It is believed that the response is conveyed via the 5-HT2 receptors."}, "pithed rats": {"tested_on": "pithed rats", "assay": "vasoconstriction / diastolic pressure in pithed rats (Gillespie)", "type": "in vivo, rat", "conditions": "450 μg/kg i.v.; in words"}}, "note": "pEC50: −log10 of the molar value. “Also recorded” adds a separate entry of the source. Where two headings read alike, the source gives them in different places.", "data": [{"smiles": "C#CCN(C)C(=O)[C@@H]1C=C2c3cccc4[nH]cc(c34)C[C@H]2N(C)C1", "note": "[Example 4, 9,10-Didehydro-N-methyl-N-(2'-propinyl)-6-methylergoline-8β-carboxamide]", "values": [{"measurement": "dilatation of the pupil", "setting": "pupil; dose-dependent, dose not given", "result": "dose-dependent dilatation of the pupil"}, {"measurement": "behavioural effects in mice", "setting": "pupil", "result": "an increased activity, tremor and piloerection"}, {"measurement": "LD50", "setting": "[1]", "result": 55, "unit": "mg/kg"}, {"measurement": "uterotonic activity", "setting": "isolated rat uterus", "result": "lesser than the one of methylergometrine maleate"}, {"measurement": "respiratory troubles", "setting": "[2]", "result": "respiratory troubles could be perceived"}, {"measurement": "effect on carotid artery pressure", "setting": "[2]; in words", "result": "statistically non-significant changes in carotid artery pressure"}, {"measurement": "reduction in heart rate", "setting": "[2]; vs initial level", "result": 20, "unit": "%"}, {"measurement": "mode of inhibition of serotonin constriction", "setting": "[3]; in words", "result": "the antagonism was of competitive nature"}, {"measurement": "serotonin-antagonistic activity", "setting": "[3]; inactivated α1-adrenergic receptors, 0.01 to 0.3 μM", "result": "showed a serotonin-antagonistic activity"}, {"measurement": "effect on maximum activity of serotonin", "setting": "[3]; inactivated α1-adrenergic receptors, higher doses", "result": "noticeable decrease of the maximum activity of serotonin"}, {"measurement": "Kb", "setting": "[3]; vs serotonin, inactivated α1-adrenergic receptors, smaller doses (0.1 μM), read-out: pA2 (converted)", "result": 4.27, "unit": "nM"}, {"measurement": "receptors responsible for vasoconstriction", "setting": "[4]; 0.39 μM (EC50)", "result": "predominantly the result of the activation of α1 -adrenergic receptors and to a lesser extent of the activation of 5-HT2 receptors"}, {"measurement": "EC50", "setting": "[4]; Oryctolagus cuniculus, constriction of the isolated rabbit thoracic aorta, read-out: pD2 (converted)", "result": 389, "unit": "nM"}, {"measurement": "pEC50", "setting": "[4]; Oryctolagus cuniculus, vasoconstriction, read-out: EC50", "result": 6.41}, {"measurement": "constriction of the isolated rabbit thoracic aorta", "setting": "[4]; in words", "result": "caused a constriction of the isolated rabbit thoracic aorta"}, {"measurement": "intrinsic activity, aorta constriction", "setting": "[4]; in words, vs serotonin", "result": "comparable to that of serotonin"}, {"measurement": "head twitch response caused by compound", "setting": "5-HT2 receptors; 0.125 to 4 mg/kg i.p., in words", "result": "caused a head twitch response in mice; also recorded: at higher doses the activity decreased (autoinhibitory effect)"}, {"measurement": "dose of maximum head twitch activity", "setting": "5-HT2 receptors; i.p.", "result": 1, "unit": "mg/kg"}, {"measurement": "peripheral vasoconstriction", "setting": "pithed rats", "result": "transient, yet extraordinarily strong peripheric vasoconstriction"}]}]}
